19 compounds from ChEMBL document CHEMBL3813628, “Molecular similarity guided optimization of novel Nrf2 activators with 1,2,4-oxadiazole core” (Bioorg Med Chem, 2016) can be followed below.

The target of series [1] is T1, Nuclear factor erythroid 2-related factor 2 (Homo sapiens) (UniProt Q16236).
T1 sequence (whole entry): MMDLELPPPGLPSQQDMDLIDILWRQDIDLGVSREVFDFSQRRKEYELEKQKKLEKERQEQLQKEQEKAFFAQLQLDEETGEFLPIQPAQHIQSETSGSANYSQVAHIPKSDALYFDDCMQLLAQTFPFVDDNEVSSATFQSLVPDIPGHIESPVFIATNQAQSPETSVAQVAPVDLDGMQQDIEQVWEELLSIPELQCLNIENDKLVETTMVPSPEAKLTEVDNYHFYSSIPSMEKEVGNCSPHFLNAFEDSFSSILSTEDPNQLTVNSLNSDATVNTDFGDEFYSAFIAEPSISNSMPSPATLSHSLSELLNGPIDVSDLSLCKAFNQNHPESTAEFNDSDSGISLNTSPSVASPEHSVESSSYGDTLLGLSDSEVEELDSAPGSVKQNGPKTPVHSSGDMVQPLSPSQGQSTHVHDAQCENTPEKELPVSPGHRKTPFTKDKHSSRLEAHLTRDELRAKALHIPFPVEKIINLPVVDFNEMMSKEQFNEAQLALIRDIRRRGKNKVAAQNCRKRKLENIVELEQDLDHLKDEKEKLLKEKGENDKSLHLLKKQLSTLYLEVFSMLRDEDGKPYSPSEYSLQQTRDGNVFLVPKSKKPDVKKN
Nature of the series: Activation of Nrf2 in human HepG2 cells at 5 uM incubated for 12 hrs by ARE-driven luciferase reporter gene assay relative to control. The format is cell-based. Background: Reporter assays use an easily measured gene product as a stand-in for the process of interest.

Series [2] has as its target T1, Nuclear factor erythroid 2-related factor 2 (Homo sapiens). Nature of the series: Activation of Nrf2 in human HepG2 cells at 20 uM incubated for 12 hrs by ARE-driven luciferase reporter gene assay relative to control. The series is classed as cell-based.
Series [3] has the same target. Nature of the series: Activation of Nrf2 in human HepG2 cells at 80 uM incubated for 12 hrs by ARE-driven luciferase reporter gene assay relative to control. The series is classed as cell-based.
For series [4] the target is unchanged. The series can be described thus: Activation of Nrf2 in human HepG2 cells at 0.2 uM incubated for 12 hrs by ARE-driven luciferase reporter gene assay relative to control. The series is classed as cell-based.
Series [5] has the same target. The series can be described thus: Activation of Nrf2 in human HepG2 cells at 0.02 uM incubated for 12 hrs by ARE-driven luciferase reporter gene assay relative to control. The format is cell-based.
For series [6] the target is unchanged. The series can be described thus: Activation of Nrf2 in human HepG2 cells at 160 uM incubated for 12 hrs by ARE-driven luciferase reporter gene assay relative to control. The format is cell-based.
For series [7] the target is unchanged. Nature of the series: Activation of Nrf2 in human HepG2 cells at 40 uM incubated for 12 hrs by ARE-driven luciferase reporter gene assay relative to control. The format is cell-based.
Series [8] shares this target. Nature of the series: Activation of Nrf2 in human HepG2 cells at 2 uM incubated for 12 hrs by ARE-driven luciferase reporter gene assay relative to control. The series is classed as cell-based.
Series [9] can be described thus: Cytotoxicity against rat PC12 cells assessed as cell viability at low to medium concentration after 24 hrs by MTT assay relative to control. The series is classed as cell-based. The note with it: pc-12, 24 h. Background: Tetrazolium assays rely on reduction of a dye to a coloured formazan, in cell work by metabolically active cells.
A short description of series [10]: Cytotoxicity against human NCM460 cells assessed as cell viability at low to medium concentration after 24 hrs by MTT assay relative to control. The series is classed as cell-based. The following applies: ncm460, 24 h.
The next series deals with L02. Nature of the series: Cytoprotective activity against H2O2-induced cytotoxicity in human L02 cells assessed as cell viability pretreated at 20 uM for 24 hrs followed by H2O2 challenge for 12 hrs by MTT assay (reference value: 50%). The format is functional.
The test system of another series is NCM460. The series can be described thus: Cytoprotective activity against H2O2-induced cytotoxicity in human NCM460 cells assessed as cell viability pretreated at 20 uM for 24 hrs followed by H2O2 challenge for 12 hrs by MTT assay (reference value: 50%). The format is functional.
The next series relates to PC-12. Nature of the series: Cytoprotective activity against H2O2-induced cytotoxicity in rat PC12 cells assessed as cell viability pretreated at 20 uM for 24 hrs followed by H2O2 challenge for 12 hrs by MTT assay (reference value: 50%). The series is classed as functional.
A short description of series [11]: Cytotoxicity against human L02 cells assessed as cell viability at low to medium concentration after 24 hrs by MTT assay relative to control. The format is cell-based. The following applies: l02, 24 h.

Active and inactive are the calls of the source. No cut-off for these calls is given here.

Take `CN(C)c1cccc(-c2nc(-c3ccc4c(c3)[nH]c(=O)n4C3CCCC3)no2)c1`: the fold change (FC) amounted to 1.94 in series [1]; 5.38 in [2]; 3.08 in [3]; 3.53 in [4]; 2.59 in series [5]; 3.06 in series [6]. The fold change (FC) in series [7] is 8.89; in series [8], 3.64.

For the compound `CCCn1c(=O)[nH]c2cc(-c3noc(C4CCCC4)n3)ccc21`, the fold change (FC) turned out to be 3.2 in [1]; 7.27 in series [2]; 6.01 in series [3]; 4.19 in [4]; 3.71 in series [5]; 8.4 in series [6]. Also, the fold change (FC) in series [7] came out at 7.03; in series [8], 4.86.

As for `Cc1nc2cc(-c3noc(/C=C/c4ccccc4)n3)ccc2o1`, the fold change (FC) in series [1] came to 4.64; in series [2] it was 5.46; in [3], 7.31; in series [4], 3.14; in [5] it was 2.26; in [6], 7.64. The fold change (FC) came to 6.78 in series [7] and 4.11 in [8].

`Cc1nc2cc(-c3noc(-c4ccc5[nH]cnc5c4)n3)ccc2o1`: the fold change (FC) in series [1] is 4.38; in series [2], 7.98; in [3], 4.88; in series [4] it was 2.35; in series [5], 1.89; in [6], 2.51. The figures for the fold change (FC) in series [7] and in series [8] were 8.94 and 3.95, respectively.

Consider `Clc1cc(-c2nc(-c3ccc4oc(-c5ccccc5)nc4c3)no2)ccn1`, for which the fold change (FC) in series [1] stood at 4.64; in series [2], 6.64; in [3], 9.84; in series [4] it was 3.41; in series [5], 3.08; in series [6] it was 10.5. The fold change (FC) was determined as 6.38 in [7] and 4.64 in series [8].

Consider `c1ccc(-c2nc3cc(-c4noc(-c5ccc6[nH]cnc6c5)n4)ccc3o2)cc1`, for which the fold change (FC) in series [1] was 4.55; in series [2], 6.96; in series [3], 8.23; in series [4], 4.42; in series [5], 1.81; in series [6], 17.7. Further, the fold change (FC) in series [7] came to 5.43; in series [8] it was 3.21.

As to `Cn1cnc2ccc(-c3noc(-c4ccc5cc[nH]c5c4)n3)cc21`, the fold change (FC) in [1] amounted to 4.1; in [2], 5.47; in [3] it was 12.1; in series [4] it was 1.5; in series [5], 1.09; in series [6], 8.73. The fold change (FC) worked out at 12.4 in series [7] and 3.35 in series [8].

With `CC(C)n1c(=O)[nH]c2cc(-c3noc(C4CCCCC4)n3)ccc21`, the fold change (FC) in series [1] was determined as 4.98; in [2] it was 6.28; in [3] it was 6.17; in [4] it was 6.14; in series [5] it was 3.81; in series [6] it was 5.74. The fold change (FC) in series [7] was 7.33; in [8] it was 7.51.

Turning to `Cc1nc2cc(-c3noc(-c4cccnc4)n3)ccc2o1`, the figures for the fold change (FC) in series [1] and in series [2] were 3.29 and 7.08, respectively.

For the compound `CCOc1ccc(-c2nc(-c3ccc(-c4csc(C)n4)cc3)no2)c(CC)c1`, the fold change (FC) in [1] amounted to 1.09; in series [2], 3.08.

For `CC(C)n1c(=O)[nH]c2cc(-c3noc(/C=C/c4ccccc4)n3)ccc21`, the fold change (FC) stood at 3.19 in [1] and 5.19 in [2].

With `CN(C)C=O` [DIMETHYLFORMAMIDE], the Activity result in [9], in [10] and in series [11] was “Non-toxic” in each case. For the same compound, the outcome in the series on L02, in the series on NCM460 and with PC-12 was Active. Further, the fold change (FC) in series [2] was determined as 1.65; in [4] it was 1; in series [5] it was 0.82; in series [7] it was 2.97; in series [8], 1.1.

In the case of `COc1ccc(Cl)cc1-c1nc(-c2ccc3oc(C)nc3c2)no1`, the figures for the fold change (FC) in series [1] and in series [2] were 3.62 and 3.72, respectively.

In the case of `CC(C)(C)c1cc(O)ccc1O` [E319], the Activity result in series [9], in series [10] and in [11] was “Non-toxic” each time. The result in the series with L02, in the series with NCM460 and with PC-12 was Active. The fold change (FC) in [3] is 5.2; in series [4], 1.25; in series [5], 1.18; in series [6], 8.46; in series [7] it was 2.14; in series [8] it was 1.24.

`Cc1nc2cc(-c3noc(Cc4ccc(F)cc4)n3)ccc2o1`: the fold change (FC) worked out at 1.73 in series [1] and 3.2 in series [2].

`Cc1nc2cc(-c3noc(-c4cccc(C#N)c4)n3)ccc2o1`: the figures for the fold change (FC) in [1] and in series [2] were 4.76 and 2.6, respectively.

Regarding `CCc1cc(O)nc(SCc2nc(-c3ccc(Cl)c(F)c3)no2)n1`, the fold change (FC) was found to be 1.38 in series [1] and 4.28 in series [2].

On to `CCc1ccc(-c2nc(-c3ccc4oc(C)nc4c3)no2)cc1`, for which the fold change (FC) was 2.36 in [1] and 4.52 in series [2].

Take `CCOc1ccc(-c2nc(-c3ccc4[nH]c(=O)n(C5CCCC5)c4c3)no2)cc1OCC`: the fold change (FC) was found to be 1.31 in series [1] and 3.38 in series [2].
